Experiment [1] concerns sorbitol oxidase. Put plainly: Sorbitol oxidase activity determined by H2O2 produced, with various monosaccharides and derivatives as substrate. It counts as biochemical, Xanthomonas maltophilia TE3539. Details: concentration or dose not given beside the values. Conditions: substrate specificity; enzyme activity with respect to D-sorbitol set at 100. The procedure: First, the following reaction mixture is prepared.
The enzyme activity was determined in the case where various monosaccharides and derivatives thereof were used as a substrate. The value of enzyme activity with respect to D-sorbitol was set at 100.

Experiment [2] concerns sorbitol oxidase. Described as above. It counts as biochemical, Xanthomonas maltophilia TE3539. Conditions: with respect to sorbitol.

In the case of `O=C[C@@H](O)[C@@H](O)[C@H](O)[C@H](O)CO` [D-mannose], the “Relative activity (%)” value in the experiment with sorbitol oxidase [1] was 1.01%.
On the same count and under the same terms, for `O=C(CO)[C@@H](O)[C@H](O)[C@@H](O)CO` [L-sorbose] the value was 10.60%; for `OC[C@H]1O[C@H](O[C@H]2[C@H](O)[C@@H](O)C(O)O[C@@H]2CO)[C@H](O)[C@@H](O)[C@@H]1O` (mixture of isomers) [Maltose], 0.00%; for `O[C@H]1[C@H](O)[C@@H](O)[C@H](O)[C@@H](O)[C@H]1O` [Inositol], 0.40%.
Same read-out and setting: for `OC[C@@H](O)C(O)[C@H](O)CO` [D-arabitol] the value was 23.20%.
Still for that read-out and setting: for `OC[C@@H](O)[C@@H](O)[C@H](O)[C@H](O)CO` [D-mannitol] the value was 86.60%.
In general, Km refers to the concentration of substrate that gives half-maximal velocity. `OC[C@@H](O)[C@@H](O)[C@H](O)[C@@H](O)CO` [D-sorbitol]: the Km with sorbitol oxidase [2] came out at 600 µM. In the experiment with sorbitol oxidase [1], the “Relative activity (%)” value came to 100.00%.
With `OC[C@@H](O)[C@H](O)[C@@H](O)CO` [D-xylitol], in the experiment on sorbitol oxidase [1], the “Relative activity (%)” value worked out at 89.90%.
Turning to `Cl.N[C@H]1C(O)O[C@H](CO)[C@@H](O)[C@@H]1O` (stereo partly drawn) [D-glucosamine hydrochloride], the “Relative activity (%)” value in the experiment with sorbitol oxidase [1] is 0.00%.
On to `O=C(CO)[C@@H](O)[C@H](O)[C@H](O)CO` [D-fructose], for which the “Relative activity (%)” value in the experiment with sorbitol oxidase [1] is 2.88%.
Regarding `OCC(O)CO` [Glycerol], the “Relative activity (%)” value with sorbitol oxidase [1] worked out at 3.50%.
On the same count and under the same terms, for `O=C[C@H](O)[C@@H](O)[C@@H](O)[C@H](O)CO` [D-galactose] the value was 0.42%; for `O=C[C@H](O)[C@@H](O)[C@H](O)[C@H](O)CO` [D-glucose], 0.54%.
